Measurements reported in patent US20160095837A1, “MODULATION OF MITOCHONDRIAL CALCIUM UNIPORTER ACTIVITY FOR TREATING AND PREVENTING ARRHYTHMIAS” (priority 2014, published 2016).
pKd: −log10 of the molar value.

Legend:
[1] = tested on: sinoatrial nodal (SAN) pacemaker cells; test: Spontaneous action potential rate of single SAN cells (perforated patch clamp); format: cell-based, mouse
Experimental: (§1) SAN cells were placed in Tyrode's solution at 36±0.5° C. and were identified by their characteristic morphology (spindle or spider shape) and spontaneous activity. SAN cells were identified electrophysiologically by spontaneous action potentials with a slow depolarizing phase 4 and the hyperpolarization-activated current (If).^27 Spontaneous action potentials, If and ICa were recorded using the perforated (amphotericin B or β-escin in studies requiring dialysis of Ru360 and/or ATP) patch-clamp technique^28 on single SAN cells at 36±0.5° C. in Tyrode's solution. Intracellular Ca^2+ transients were recorded from single SAN cells using Fura-2 AM excited at 340 nm and 380 nm and emitted and 510 nm. Endogenous NADH from single SAN cells was measured by excitation at 350 nm and recording emitted light at 460 nm.^29 Mitochondrial Ca^2+ was measured at 535 nm from mt-pericam expressing SAN cells exited at 415 nm^20. Mitochondrial Ca^2+ entry was measured in cell membrane permeabilized cardiomyocytes isolated from DN-MCU transgenic, wild type mice and from HEK293 cells using Calcium green-5N^30.
Isolation of single SAN cells from mice was performed according to previously published methods^22, 27, 31 with minor modifications. Mice were administered an intraperitoneal injection of avertin (20 μl/g) and monitored until unresponsive. The heart was excised and placed into Tyrode's solution (35° C.), consisting of (mM) 140 NaCl, 5.0 HEPES, 5.5 Glucose, 5.4 KCl, 1.8 CaCl2, and 1.0 MgCl2. The pH was adjusted to 7.4 with NaOH. […] The SAN was cut into smaller pieces, which were transferred and rinsed in a solution containing (mM) 140 NaCl, 5.0 HEPES, 5.5 Glucose, 5.4 KCl, 0.2 CaCl2, 0.5 MgCl2, 1.2 KH2PO4, 50 Taurine and 1 mg/ml bovine serum albumin (BSA), with pH adjusted to 7.4 using NaOH. SAN tissue pieces were digested in 5 ml of solution containing collagenase type I, elastase (Worthington), and protease type XIV (Sigma) for 20-30 min. The tissue was transferred to 10 ml of Kraft-Bruhe (KB) medium containing (mM) 100 potassium glutamate, 5.0 HEPES, 20 Glucose, 25 KCl, 10 potassium aspartate, 2.0 MgSO4, 10 KH2PO4, 20 taurine, 5 creatine, 0.5 EGTA, and 1 mg/ml BSA, with pH adjusted to 7.2 using KOH. The tissue was agitated using a glass pipette for 10 min. The cells were stored at 4° C. and studied within 7 hours.
SAN cells were placed in Tyrode's solution at 36±0.5° C. SAN cells were identified by their characteristic morphology (spindle or spider shape) and spontaneous activity in all single cell experiments. SAN cells were also identified electrophysiologically by typical spontaneous action potentials with slow depolarizing phase 4 and the hyperpolarization-activated current (If) in electrophysiological experiments.
Spontaneous action potentials (APs) and If were recorded using the perforated (amphotericin B or β-escin) patch-clamp technique^28 on single SAN cell at 36±0.5° C. in Tyrode's solution (0.5 mM BaCl2 was added to the bath solution when recording If^32). The pipette was filled with (mM) 130 potassium aspartate, 10 NaCl, 10 HEPES, 0.04 CaCl2, amphotericin B 240 μg/ml with pH adjusted to 7.2 with KOH. SAN cells with stable APs lasting at least 5 min were included in the experiments. β-escin 25 μM was substituted for amphotericin B to allow dialysis of Ru360 or ATP. When recording If, membrane potential was held at −35 mV, the voltage steps were applied for 5 s ranging from −125 mV to −45 mV in 10 mV increments or vice versa.^33 ICa was measured using the perforated patch technique at […] as previously described.^22 ICa was confirmed by its sensitivity to Nifedipine 5 μM. Depolarizing voltage pulses (300 ms in duration) to various potentials (−60 mV to 60 mV in 10 mV step) were applied after 50 ms at −40 mV to inactivate INa from a holding potential of −70 mV. […]

[2] = tested on: other cellular Ca2+ transport processes involved in cardiac muscle contraction; conditions: even at micromolar levels; cited from earlier work
mitochondria = conditions: read-out: Kd, binding to mitochondria; cited from earlier work
HCN4 inward current (If) = test: If current recording in SAN cells; format: cell-based, mouse; conditions: Ru360 dialysis
Experimental: as §1
Spontaneous action potentials (APs) and If were recorded using the perforated (amphotericin B or β-escin) patch-clamp technique^28 on single SAN cell at 36±0.5° C. in Tyrode's solution (0.5 mM BaCl2 was added to the bath solution when recording If^32). […]

(μ)[(HCO2)(NH3)4Ru]2OCl3) [Ru360]
Basal SAN cell rates ([1]; dialysis, no ISO): neither Ru360 nor ATP had any affect | SAN cell action potential frequency increases to ISO ([1]; freshly isolated SAN cells dialyzed with Ru360 5 μM, vs cells without Ru360): significantly reduced | Effect on other cellular Ca2+ transport processes involved in cardiac muscle contraction [2]: does not affect | pKd (mitochondria): 9.47 | If responses to ISO (HCN4 inward current (If)): not reduced
